Test results published in the NIST ThermoML archive (doi:10.1016/j.jct.2011.12.024).

How the values were obtained:
[1] = refractive index (other wavelength) (dimensionless); xn = mol fraction of the nth substance listed; conditions: 101.33 kPa, Liquid, Wavelength=632.8 nm, Standard Abbe refractometry
[2] = refractive index (other wavelength) (dimensionless); conditions: 101.33 kPa, Liquid, Wavelength=632.8 nm, Standard Abbe refractometry
[3] = 101.33 kPa, Liquid, Vibrating tube method

CCCCCCC [heptane] + COC(=O)CCCCC(=O)OC
[1], x2 = 0
Conditions	refractive index
289.62 K	1.3883
290.68 K	1.3878
291.71 K	1.3873
292.7 K	1.3868
293.74 K	1.3863
294.71 K	1.3858
295.77 K	1.3853

CCCCCC [hexane]
[2]
Conditions	refractive index
283.72 K	1.3789
284.52 K	1.3785
285.35 K	1.3781
286.21 K	1.3776
287.1 K	1.3771
287.94 K	1.3767
288.71 K	1.3762

COC(=O)CCCCC(=O)OC [dimethyl 1,6-hexanedioate]
Conditions	mass density [kg/m3]	refractive index
[2], 283.48 K	–	1.4312
[2], 284.37 K	–	1.4309
[2], 285.28 K	–	1.4305
[2], 286.1 K	–	1.4302
[2], 286.92 K	–	1.4298
[2], 287.65 K	–	1.4296
[2], 288.49 K	–	1.4292
[3], 281.15 K	1073.09	–
[3], 282.15 K	1072.12	–
[3], 283.15 K	1071.14	–
[3], 284.15 K	1070.17	–
[3], 285.15 K	1069.19	–
[3], 286.15 K	1068.21	–
[3], 287.15 K	1067.24	–
[3], 288.15 K	1066.26	–
[3], 289.15 K	1065.29	–
[3], 290.15 K	1064.32	–
[3], 291.15 K	1063.34	–
[3], 292.15 K	1062.37	–
[3], 293.15 K	1061.39	–
[3], 294.15 K	1060.42	–
[3], 295.15 K	1059.45	–
[3], 296.15 K	1058.47	–
[3], 297.15 K	1057.5	–
[3], 298.15 K	1056.52	–
[3], 299.15 K	1055.55	–
[3], 300.15 K	1054.58	–
[3], 301.15 K	1053.6	–
[3], 302.15 K	1052.63	–
[3], 303.15 K	1051.65	–
[3], 304.15 K	1050.68	–
[3], 305.15 K	1049.7	–
[3], 306.15 K	1048.73	–
[3], 307.15 K	1047.75	–
[3], 308.15 K	1046.78	–

COC(=O)CCCCC(=O)OC [dimethyl 1,6-hexanedioate] + CCCCCC
[1], 289.28 K
Conditions	refractive index
x1 = 0.101	1.3821
x1 = 0.202	1.3884
x1 = 0.301	1.3944
x1 = 0.394	1.3998
x1 = 0.5	1.4056
x1 = 0.599	1.4107
x1 = 0.706	1.416
x1 = 0.799	1.4203
x1 = 0.882	1.4239
